Results reported in patent US9594084B2, “Phosphorylation of histones and uses thereof” (H. LEE MOFFITT CANCER CENTER AND RESEARCH INSTITUTE, priority 2012, dated 2017).

Columns and labels:
WEE1 = WEE1 (Homo sapiens, UniProt P30291); assay: Peptide Immunosandwich Assay (PIA) with purified WEE1; type: biochemical; design: GST; purchased Invitrogen; conditions: purified WEE1 protein (100 ng), 5 uM
Description: H2B Tyr37-phosphorylation was determined as described in the text.
In brief, Streptavidin coated 96-well plates (R&D systems) were incubated with biotinylated human histone H2B derived peptides […] (SEQ ID NO: 62, Y37 site is underlined). H2B derived phospho-peptide KRSRKESp[…] (SEQ ID NO: 63) was used as positive control. Any unbound areas on the plate were blocked with 3% BSA. Next, purified WEE1 protein (100 ng) prepared in kinase buffer (20 mM HEPES, 225 mM NaCl, 1% Triton X-100, 10% glycerol, phosphatase and protease inhibitors) supplemented with 1 uM ATP and 1 uM MgCl2. After 2 hours of incubation, plates were washed with phosphate buffered saline containing 0.1% Tween 20 (PBST) and reblocked in 3% BSA. The pY37-H2B or pTyr antibodies (at 1:1000 dilution) were added and incubated for 1 hour. Unbound antibodies were washed and HRP-conjugated anti-mouse secondary antibodies (1:5000) were added. The magnitude of phosphorylation was detected using developer solution (OPD tablets, Sigma) and after 20 minutes of incubation, the plates were read at 450 nm.
The Peptide Immunosandwich Assay was first validated using purified WEE1 protein (100 ng) and cancer derived cell lines (50 ug). […] PIA was also validated using cancer derived cells lines MDA-MB231 (low WEE1 activity) and LAPC4 cells (high WEE1 activity). […] As negative controls, H2B peptide alone or WEE1 enzyme alone were used. […]

[1] = system: pTyr37-H2B upstream of the Hist1 cluster; assay: Native ChIP-qPCR with pTyr37-H2B antibody at Hist1 Site I and II in synchronized MEFs; type: cell-based, mouse; conditions: 6.30 hours post-release
Description: FIG. 1A is a diagram illustrating the position of histone genes in mouse Hist1 subcluster 1 showing two pTyr37-H2B binding sites. Starting nucleotide position is shown above. Subclusterl is conserved between human and mouse. FIG. 1B-1D are bar graphs showing Native Chromatin immunoprecipitation (ChIP) (% input DNA) in synchronized MEFs treated with WEE1 inhibitor or untreated and harvested at 0 and 6.30 hours post-release. Native ChIP was performed using pTyr37-H2B or IgG antibodies followed by quantitative PCR using primers corresponding to Site I (FIG. 1B), Site II (FIG. 1C) and control site (FIG. 1D). Data shown are representative of three independent experiments. *p=0.001; **p=0.006. FIG. 1E is bar graph showing ChIP in synchronized MEFs harvested at 0 and 6.30 hours post-release using WEE1 or IgG antibodies followed by quantitative PCR using primers corresponding to Site II. […] FIG. 1F is bar graph showing ChIP in cells transfected with control or WEE1 siRNAs performed using pTyr37-H2B antibodies followed by quantitative PCR using primers corresponding to Site II. […]
As a first step, extensive standardization of pTyr37-H2B antibodies were performed for its usage in ChIP. […] Pellets were resuspended and the resulting DNA was quantified on a NanoDrop spectrophotometer. Extrapolation to the original chromatin volume allowed quantitation of the total chromatin yield. […]

[2] = system: pY37-H2B epigenetic marks within IDH2; assay: Directed ChIP-PCR of pY37-H2B marks in IDH2 coding region, synchronized MEFs; type: cell-based, mouse
IDH2 gene transcription = assay: qRT-PCR of IDH2 in cancer cell lines; type: cell-based
From the text: (FIG. 42a-42e) RNA was isolated from cells treated with WEE1 inhibitor (or siRNA) followed by qRT-PCR using IDH2 and actin primers.
Total RNA was isolated followed by qRT-PCR with IDH2 and actin specific primers. As control, U118 cell line was used which has low levels of WEE1 (unpublished data).

Chain of WEE1 (P30291 whole entry): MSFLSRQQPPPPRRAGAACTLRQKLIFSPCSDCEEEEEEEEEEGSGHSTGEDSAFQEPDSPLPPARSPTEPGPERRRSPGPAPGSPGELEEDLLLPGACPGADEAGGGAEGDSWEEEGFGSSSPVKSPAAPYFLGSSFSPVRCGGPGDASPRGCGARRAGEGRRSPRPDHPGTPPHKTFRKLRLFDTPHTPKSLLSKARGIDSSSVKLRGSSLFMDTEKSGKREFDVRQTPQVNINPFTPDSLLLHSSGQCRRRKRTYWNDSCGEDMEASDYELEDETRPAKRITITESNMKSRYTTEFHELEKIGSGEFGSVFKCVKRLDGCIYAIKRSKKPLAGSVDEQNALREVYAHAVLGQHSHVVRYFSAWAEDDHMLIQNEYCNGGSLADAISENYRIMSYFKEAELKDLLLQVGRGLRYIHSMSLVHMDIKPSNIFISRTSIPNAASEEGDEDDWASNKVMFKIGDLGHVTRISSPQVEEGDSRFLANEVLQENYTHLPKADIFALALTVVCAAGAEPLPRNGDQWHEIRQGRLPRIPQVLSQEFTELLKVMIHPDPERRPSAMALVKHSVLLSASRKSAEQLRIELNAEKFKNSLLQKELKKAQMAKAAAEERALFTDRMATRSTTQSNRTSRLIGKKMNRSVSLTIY

## C=CCn1c(=O)c2cnc(Nc3ccc(N4CCN(C)CC4)cc3)nc2n1-c1cccc(C(C)(C)O)n1 [MK-1775]
WEE1
  pY37-H2B levels: significant decrease
[1]
  occurrence of pTyr37-H2B at site I and II: significantly reduced
[2]
  deposition of pY37-H2B epigenetic marks in the IDH2 coding region: abolished
IDH2 gene transcription; LNCaP (prostate), 1 uM, 24 hours
  transcript levels of the IDH2 gene: significant increase
IDH2 gene transcription; U87 (GBM), 1 uM, 24 hours
  transcript levels of the IDH2 gene: significant increase
IDH2 gene transcription; U118 cell line (low levels of WEE1), 1 uM, 24 hours
  IDH2 mRNA: not increased
IDH2 gene transcription; WM1366 (melanoma), 1 uM, 24 hours
  transcript levels of the IDH2 gene: significant increase
IDH2 gene transcription; summary statement
  IDH2 transcript levels: increased
